# How the values were obtained:
# MRSA MW2 persisters = assay: Persister killing assay; type: cell-based, S. aureus; conditions: MRSA persisters, in words
# Method: Persister killing assay. […] Persistency of stationary-phase S. aureus VRS1 was evaluated by treating with 100×MIC daptomycin and 100×MIC linezolid, because the strain is resistant to vancomycin, gentamicin, ciprofloxacin, and rifampicin. We prepared persister cells of the 13 S. aureus strains by growing cultures overnight to stationary phase at 37° C. at 225 rpm. The overnight cultures were washed three times with PBS and diluted to ˜5×10^7 ? CFU/ml with the same buffer. 2 ml of the persister suspension containing appropriate concentrations of antibiotics was added to the wells of a 96-well assay block (Corning Costar 3960) and incubated at 37° C., with shaking at 225 rpm. At specific times, 400 μl samples were removed and washed once with PBS to remove the antibiotic. The samples were serially diluted 10^5 fold with PBS and spot-plated onto TSA plates. After incubating the plates overnight (˜18 h) at 37° C., the colonies were counted to enumerate the number of cells. These experiments were conducted in triplicate.
# S. aureus MW2 = assay: Deep-seated mouse thigh infection model; type: in vivo, mice; conditions: every 12 h for 3 days, p<0.001
# Method: Deep-seated mouse thigh infection model for evaluating drug efficacy. A previously described protocol to mimic a chronic, deep-tissue infection was used with modifications. Six-week-old female CD1 ICR outbred mice (20-25 g) were obtained from Charles River Laboratories (Wilmington, MA, USA). To make mice neutropenic, 150 mg/kg and 100 mg/kg of cyclophosphamide were administered via i.p. injection at 4 days and 1 day before infection, respectively. On the day of infection, ˜10^5 cells of stationary-phase S. aureus MW2 suspended in 50 μl of saline were injected to the right thigh of each mouse. To test the efficacy of CD437, the compound was dissolved in a 1:1 solution of Kolliphor EL (Sigma-Aldrich, St Louis, MO, USA) and ethanol and then diluted 1:10 in saline to a final concentration of […]. […] At 24 h post-infection, groups of mice (n=10) were treated with 30 mg/kg gentamicin subcutaneously (s.c.), 25 mg/kg vancomycin i.p., 20 mg/kg CD437 i.p., or a combination of 20 mg/kg CD437 i.p. and 30 mg/kg gentamicin s.c. every 12 h for 3 days. Control mice were injected with 200 μl of 10% Kolliphor EL/ethanol in saline i.p. every 12 h for 3 days. For testing the efficacy of Analog 2, the compound was dissolved in a 1:1 solution of Kolliphor EL (Sigma-Aldrich, St Louis, MO, USA) and ethanol and then diluted 1:10 in saline to a final concentration of 4 mg/ml. […] Serum was analyzed for alanine aminotransferase and urea nitrogen content with commercially available kits, following the manufacturer's protocol (Pointe Scientific, Canton, MI, USA). […] The bacterial burden was recorded as CFU/g tissue. A sample size of 10 mice per group was calculated for a single-tailed power analysis using a standard deviation based on our historical data and the literature in consultation with the Rhode Island Hospital Biostatistics Core. […] Statistical significance among each group was analyzed by one-way ANOVA with post-hoc Tukey test using PASW Statistics 18 (SPSS Inc. Chicago, IL, USA) and GraphPad Prism 7 (GraphPad Software, La Jolla, CA, USA).
# [1] = system: panel of human cell lines; assay: Cytotoxicity (WST-1) in a panel of human cell lines; type: cell-based; conditions: compared with CD437, in words
# Method: (§1) Cytotoxicity. Cryopreserved rat and human primary hepatocytes were purchased from the Cell Resource Core at Massachusetts General Hospital (Boston, MA, USA). The hepatocytes were cultured in a collagen sandwiched configuration in 24-well plates, as described previously. Briefly, 4×10^5 live cells were seeded in 24-well plates coated with rat tail collagen type I. Plates were incubated in a humidified 5% CO2 incubator at 37° C. for 4 h to allow cells to attach to the collagen gel. […] The cell cultures were incubated in a humidified 5% CO2 incubator at 37° C.
# (§2) For cytotoxicity tests, HepG2, RPTEC, and NHEK were cultured at 70-80% confluence in tissue culture treated 96-well plates in a volume of 100 μl/well corresponding culture media. To test cytotoxicity in the absence of serum, all cells were washed twice with PBS and then once with the serum-free corresponding culture media. […] WST-1 reduction was measured at 450 nm. The percent fluorescence relative to that of the no-treatment control was calculated. The assay was done in triplicate.
# [2] = as above; type: cell-based; conditions: panel of human cell lines, serum-free media, 24 h; read-out: LC50
# Method: as §1, §2
# [3] = system: Cutibacterium (Propionibacterium) acnes; assay: Morphology of treated P. acnes bacteria; type: cell-based; conditions: in words (FIG. 13)
# human erythrocytes = assay: Human blood hemolysis; type: cell-based
# Method: Human blood hemolysis. Hemolytic activity of retinoids on human erythrocytes was evaluated using a previously described method with modifications. 10% human erythrocytes were purchased from Rockland Immunochemicals (Limerick, PA, USA). The erythrocytes were diluted to 4% with PBS, and 100 μl was added to 100 μl of two-fold serial dilutions of compounds in PBS, 0.2% DMSO (negative control), or 2% Triton-X 100 (positive control) in a 96-well plate. The plate was incubated at 37° C. for 1 h and then centrifuged at 500×g for 5 min. 100 μl of the supernatant was transferred to a fresh 96-well plate and absorbance of supernatants was measured at 540 nm. Percent hemolysis was calculated using the following equation: (A540 nm of compound treated sample−A540 nm of 0.1% DMSO treated sample)/(A540 nm of 1% Triton X-100 treated sample−A540 nm of 0.1% DMSO treated sample)×100. HC50 (concentration of compound causing 50% hemolysis) was determined using SigmaPlot 10.0 (Systat Software Inc., San Jose, CA, USA).
structure (smiles),measurement,setting,value
"OCc1ccc2cc(-c3ccc(O)c(C45CC6CC(CC(C6)C4)C5)c3)ccc2c1 [Analog 2, 2-(adamantan-1-yl)-4-(6-(hydroxymethyl)naphthalen-2-yl)phenol]",anti-persister activity,MRSA MW2 persisters,retained bacterial activity against MRSA persisters
same,decrease in bacterial burden,S. aureus MW2; 40 mg/kg i.p. in combination with 30 mg/kg gentamicin s.c.,~1 log
same,decrease in bacterial burden,S. aureus MW2; 80 mg/kg i.p. alone,~1 log
same,decrease in bacterial burden,S. aureus MW2; 80 mg/kg i.p. in combination with 30 mg/kg gentamicin s.c.,~2 log
same,cytotoxicity,[1],significantly reduced
same,CC50 at 24 h,[2],≥ 31 mg/L
same,morphology of bacteria,[3],altered and elongated
same,hemolytic activity,"human erythrocytes; compared with CD437, in words",significantly reduced
same,HC50,"human erythrocytes; human erythrocytes, 1 h",> 32 µg/mL

# Source: patent publication US12195424B2, “Antibiotic compounds” (The General Hospital Corporation, priority 2017, dated 2025)
